According to PubChem BioAssay AID1845200 (Molecular Pharmacology Branch, DTP, NCI, 2023):

Test system: ASPS-1 complex tumor spheroids, viability
Assay: Anticancer human tumor ASPS-1 cell line growth inhibition;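 also: spheroids exposed to agents for 7 days after 3 days of growth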;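 as to viability, T/C: 100% = DMSO vehicle treated spheroids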
Details: for IC50: curve of first compound; for viability, T/C: stronger effect = lower value
Procedure, shortened: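 Single agents and combinations were tested on spheroids built from tumor cells plus HUVEC and hMSC, at half-log dilutions starting at or near clinical Cmax, else 10 microM; final DMSO 0.25% (v/v).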

[1] = second compound 30 pM, first compound 0.00949 µM
[2] = second compound 30 pM, first compound 0.03 µM
[3] = second compound 30 pM, first compound 0.0949 µM
[4] = second compound 30 pM, first compound 0.3 µM
[5] = second compound 30 pM, first compound 0.949 µM
[6] = second compound 30 pM, first compound 3 µM
[7] = second compound 94.9 pM, first compound 0.00949 µM
[8] = second compound 94.9 pM, first compound 0.03 µM
[9] = second compound 94.9 pM, first compound 0.0949 µM
[10] = second compound 94.9 pM, first compound 0.3 µM
[11] = second compound 94.9 pM, first compound 0.949 µM
[12] = second compound 94.9 pM, first compound 3 µM
[13] = second compound 0.0003 µM, first compound 0.00949 µM
[14] = second compound 0.0003 µM, first compound 0.03 µM
[15] = second compound 0.0003 µM, first compound 0.0949 µM
[16] = second compound 0.0003 µM, first compound 0.3 µM
[17] = second compound 0.0003 µM, first compound 0.949 µM
[18] = second compound 0.0003 µM, first compound 3 µM
[19] = second compound 0.000949 µM, first compound 0.00949 µM
[20] = second compound 0.000949 µM, first compound 0.03 µM
[21] = second compound 0.000949 µM, first compound 0.0949 µM
[22] = second compound 0.000949 µM, first compound 0.3 µM
[23] = second compound 0.000949 µM, first compound 0.949 µM
[24] = second compound 0.000949 µM, first compound 3 µM
[25] = second compound 0.003 µM, first compound 0.00949 µM
[26] = second compound 0.003 µM, first compound 0.03 µM
[27] = second compound 0.003 µM, first compound 0.0949 µM
[28] = second compound 0.003 µM, first compound 0.3 µM
[29] = second compound 0.003 µM, first compound 0.949 µM
[30] = second compound 0.003 µM, first compound 3 µM

| Compound | IC50 (second compound 30 pM) | IC50 (second compound 94.9 pM) | IC50 (second compound 0.0003 µM) | IC50 (second compound 0.000949 µM) | IC50 (second compound 0.003 µM) | viability, T/C [3] | viability, T/C [4] | viability, T/C [5] | viability, T/C [6] | viability, T/C [9] | viability, T/C [10] | viability, T/C [11] | viability, T/C [12] | viability, T/C [15] | viability, T/C [16] | viability, T/C [17] | viability, T/C [18] | viability, T/C [21] | viability, T/C [22] | viability, T/C [23] | further results |
| --- | --- | --- | --- | --- | --- | --- | --- | --- | --- | --- | --- | --- | --- | --- | --- | --- | --- | --- | --- | --- | --- |
| Cc1sc2c(c1C)C(c1ccc(Cl)cc1)=NC(CC(=O)Nc1ccc(O)cc1)c1nnc(C)n1-2 (stereo not given) + COc1cc2c(cc1O)CCNC21CSC2c3c(OC(C)=O)c(C)c4c(c3C(COC1=O)N1C(O)C3Cc5cc(C)c(OC)c(O)c5C(C21)N3C)OCO4 | > 3000 nM | > 3000 nM | > 3000 nM | 772 nM | < 9.49 nM | 113% | 103% | 94% | 83% | 109% | 103% | 93.4% | 70.2% | 103% | 97.1% | 85.2% | 72.4% | 88.7% | 76.9% | 44.3% | viability, T/C [1]: 109%; viability, T/C [2]: 112%; viability, T/C [7]: 106%; viability, T/C [8]: 107%; viability, T/C [13]: 102%; viability, T/C [14]: 110%; viability, T/C [19]: 81.6%; viability, T/C [20]: 94.7%; viability, T/C [24]: 26.3%; viability, T/C [25]: 24.1%; viability, T/C [26]: 24.6%; viability, T/C [27]: 29.2%; viability, T/C [28]: 20.9%; viability, T/C [29]: 9.4%; viability, T/C [30]: 1.27% |
| Cn1ncnc1[C@H]1c2n[nH]c(=O)c3cc(F)cc(c23)N[C@@H]1c1ccc(F)cc1 + COc1cc2c(cc1O)CCNC21CSC2c3c(OC(C)=O)c(C)c4c(c3C(COC1=O)N1C(O)C3Cc5cc(C)c(OC)c(O)c5C(C21)N3C)OCO4 | > 3000 nM | > 3000 nM | 2230 nM | 562 nM | < 9.49 nM | 101% | 101% | 89.3% | 62.8% | 98% | 94% | 88.8% | 57.5% | 85.2% | 83.3% | 75.4% | 40.9% | 56.7% | 59.7% | 45.1% | viability, T/C [1]: 102%; viability, T/C [2]: 93.8%; viability, T/C [7]: 97.3%; viability, T/C [8]: 97.2%; viability, T/C [13]: 86%; viability, T/C [14]: 89.8%; viability, T/C [19]: 70.3%; viability, T/C [20]: 63.5%; viability, T/C [24]: 28.4%; viability, T/C [25]: 21.5%; viability, T/C [26]: 21.8%; viability, T/C [27]: 19.4%; viability, T/C [28]: 16.6%; viability, T/C [29]: 13.3%; viability, T/C [30]: 4.87% |
| O=C(c1cc(Cc2n[nH]c(=O)c3ccccc23)ccc1F)N1CCN(C(=O)C2CC2)CC1 + COc1cc2c(cc1O)CCNC21CSC2c3c(OC(C)=O)c(C)c4c(c3C(COC1=O)N1C(O)C3Cc5cc(C)c(OC)c(O)c5C(C21)N3C)OCO4 | 26000 nM | 22100 nM | 13000 nM | 2080 nM | < 94.9 nM | 114% | 112% | 105% | 107% | 103% | 103% | 108% | 101% | 97.8% | 106% | 102% | 98.5% | 73% | 75.1% | 59.5% | viability, T/C (second compound 30 pM, first compound 9.49 µM): 106%; viability, T/C (second compound 30 pM, first compound 30 µM): 42.2%; viability, T/C (second compound 94.9 pM, first compound 9.49 µM): 98.6%; viability, T/C (second compound 94.9 pM, first compound 30 µM): 32.5%; viability, T/C (second compound 0.0003 µM, first compound 9.49 µM): 60.3%; viability, T/C (second compound 0.0003 µM, first compound 30 µM): 22.9%; viability, T/C [24]: 45.3%; viability, T/C (second compound 0.000949 µM, first compound 9.49 µM): 21.5%; viability, T/C (second compound 0.000949 µM, first compound 30 µM): 4.17%; viability, T/C [27]: 21.6%; viability, T/C [28]: 22.4%; viability, T/C [29]: 17.4%; viability, T/C [30]: 12.7%; viability, T/C (second compound 0.003 µM, first compound 9.49 µM): 3.59%; viability, T/C (second compound 0.003 µM, first compound 30 µM): 1.41% |
